Several values for one entry are separate records, joined by “and”; a condition that tells them apart may be missing. Identical values can stand only once.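 Values below derive from 48-hour exposures of cells grown in 96-well plates, with endpoints linearly interpolated between the two concentrations bracketing the appropriate inhibition level. At the GI50, growth is halved. The concentration for full growth arrest is given as TGI.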 A value given as a limit tells only on which side of the number the result lay.

The record followed here is PubChem BioAssay (NCI).

Assay in all cases: inhibition of tumour cell growth, NCI panel, 48 h
Test [1] deals with NCI-H23 lung.
For test [2], the system named is OVCAR-8 ovarian.
In test [3] the test system is SR leukemia.
In test [4] the test system is TK-10 renal.
The test system of test [5] is HCT-116 colon.
The subject of test [6] is OVCAR-5 ovarian.
The subject of test [7] is NCI/ADR-RES ovarian.
Test [8] has as its system K-562 leukemia.
Test [9] deals with SW-620 colon.
Test [10] relates to SK-MEL-5 melanoma.

`Cc1nc2n(c(=O)c1CCN1CCC(c3noc4cc(F)ccc34)CC1)CCCC2`: the GI50 in test [1], in test [2], in [3], in test [4], in test [5] and in [6] was over 50 µM each time. The GI50 in test [7], in [8] and in test [9] was over 50 µM in each case. In addition, the TGI in test [1], in test [2], in [3], in test [4], in test [5] and in [6] was over 50 µM each time. Besides, the TGI in [7], in test [8] and in test [9] was over 50 µM each time.
As for `Cc1ccc(S(=O)(=O)Cc2nc(-c3ccc(C(=O)NCc4cccnc4)cc3)oc2C)cc1`, the GI50 in test [2] was under 0.01 µM; in test [3], 0.514 µM; in test [4], over 67.8 µM; in test [5] it was under 0.01 µM; in test [7], 0.623 µM; in test [10], 2.85 µM. Further, the GI50 in [8] and in [9] was under 0.01 µM in each case. The TGI in [2], in test [3], in test [4], in test [5], in test [6] and in test [7] was over 100 µM each time. The TGI in [10], in test [8] and in test [9] was over 100 µM each time.
Take `Cc1c(NC(=O)OC[C@@H]2COCCN2)cn2ncnc(Nc3ccc4c(cnn4Cc4cccc(F)c4)c3)c12`: the GI50 in test [1] is > 10 µM and 11.9 µM; in [2] it was > 10 µM and 8.88 µM; in test [4] it was 0.546 µM and 0.415 µM; in [5], 7.82 µM and 5.22 µM; in [6], > 10 µM and 8.82 µM; in [7] it was > 10 µM and 13.1 µM. The GI50 in test [10] was 5.3 µM and 5.56 µM; in test [8], 3.91 µM and 4.53 µM; in [9], > 10 µM and 10.5 µM. Further, the TGI in [1] is > 10 µM and 26.4 µM; in test [2], > 10 µM and 28.7 µM; in [4], > 10 µM and 15.7 µM; in test [5] it was > 10 µM and 18.7 µM; in [6], > 10 µM and 21.4 µM; in [7], > 10 µM and 33.5 µM. For the same compound, the TGI in [10] is > 10 µM and 17.4 µM; in [8], > 10 µM and 17.1 µM; in [9], > 10 µM and 24.6 µM.
On to `O=C(c1ccccc1)c1nc2ccc(C(F)(F)F)cc2[n+]([O-])c1C(F)(F)F`, for which the GI50 in [1] was 29.1 µM; in [2], 38.7 µM; in test [4], 37.5 µM; in test [5] it was 31.3 µM; in [6], 34.6 µM; in test [7] it was 27 µM. Moreover, the GI50 was 17.5 µM in [10], 18.2 µM in [8] and 47.5 µM in test [9]. The TGI in test [1], in test [2], in [4], in [5], in test [6] and in test [7] was over 100 µM in each case. Moreover, the TGI in test [10] is 48 µM; in test [8] it was over 100 µM; in test [9] it was over 100 µM.
For the compound `COc1ccc(Cn2cc3c(c2-c2cc(OC)c(OC)c(OC)c2)CCc2cnoc2-3)cc1[N+](=O)[O-]`, the GI50 in test [1] is 1.46 µM; in test [2], 3.35 µM; in test [4], 3.57 µM; in test [5], 0.587 µM; in [6] it was 5.08 µM; in [7] it was 0.364 µM. In addition, the GI50 in [10] is 0.45 µM; in test [8], 0.358 µM; in test [9] it was 0.482 µM. In addition, the TGI in [1] is over 30.3 µM; in [2], over 100 µM; in test [4] it was over 84.3 µM; in [5], over 100 µM; in test [6] it was over 100 µM; in [10], over 71.6 µM. Besides, the TGI in test [8] and in test [9] was over 100 µM each time.
For the compound `COC1=Nc2ccccc2S(=O)(=O)C=C1`, the TGI in [1] was found to be 21.4 µM; in test [2], 19.5 µM; in [4], 11.3 µM; in test [5], 3.46 µM; in test [6] it was 31.1 µM; in [7], 36.2 µM. For the same compound, the TGI in test [10] was 24.5 µM; in [9] it was 3.46 µM. The GI50 in [9] was 0.875 µM.
For `CCCCCC/C=C\CCCCCCCCCC1=CC(=O)C=C(OC)C1=O`, the TGI in test [1] turned out to be 12 µM; in test [2] it was 12.5 µM; in test [3], 20.2 µM; in test [4] it was 18.8 µM; in test [5] it was 12.2 µM; in [6], 17.8 µM. Besides, the TGI in [7] turned out to be 19.1 µM; in test [10], 5.54 µM; in [9] it was 17.5 µM.
In the case of `CC(=O)OCC1O[C@@H]([S-])C(OC(C)=O)[C@H](OC(C)=O)[C@@H]1OC(C)=O.[Au+].c1ccc(CN2[CH-]N(Cc3ccccc3)C(c3ccccc3)=C2c2ccccc2)cc1`, the GI50 in test [2] is 2.61 µM; in test [3] it was 0.663 µM; in [4], 1.86 µM; in [5] it was 1.64 µM; in [6], 1.92 µM; in test [7], 5.21 µM. For the same compound, the GI50 in test [10] is 1.79 µM. Besides, the TGI in test [2] is 7.38 µM; in test [3] it was 7.8 µM; in [4], 3.42 µM; in [5], 3.24 µM; in test [6], 3.96 µM; in test [7], over 100 µM. Also, in test [10], the TGI amounted to 3.28 µM.
Take `CC(=O)OC1CC2C(C)(C)C(=O)C=CC2(C)C2CCC3(C)C(c4ccoc4)OC(=O)C4OC43C12C` (stereo not drawn): the TGI in [1] was 41.5 µM; in test [2], 53.9 µM; in test [4], over 100 µM; in [5] it was 11.3 µM; in test [6], over 100 µM; in [7], over 100 µM. Also, the TGI is 19.2 µM in test [10], over 100 µM in test [8] and over 100 µM in test [9].
As to `CCC1CCc2nc3sc(C(=O)Nc4ccccc4C)c(N)c3cc2C1` (stereo not drawn), the GI50 in test [2] is over 100 µM; in test [3], 0.196 µM; in test [4], 0.833 µM; in [5], 0.348 µM; in test [7], 0.785 µM; in [10] it was 0.301 µM. For the same compound, the GI50 in test [9] is 0.388 µM. Besides, the TGI in test [2] was over 100 µM; in [3], 14.6 µM; in test [4], over 100 µM; in [5] it was over 100 µM; in test [7] it was over 100 µM; in test [10], over 100 µM. The TGI in test [9] was over 100 µM.
